The record followed here is US20020037560A1, “Bicyclic terpenes and synthesis thereof” (priority 2000, published 2002).

The structures appear in SMILES notation.

Usually Ki stands for the equilibrium dissociation constant of an inhibitor or competing ligand from its target. Usually Km stands for the concentration of substrate that gives half-maximal velocity.

In the test the target is T1, Tobacco 5-epi-aristolochene synthase (TEAS) (Nicotiana tabacum, UniProt Q40577).
T1 construct: made in house
T1 sequence (Q40577 1-548): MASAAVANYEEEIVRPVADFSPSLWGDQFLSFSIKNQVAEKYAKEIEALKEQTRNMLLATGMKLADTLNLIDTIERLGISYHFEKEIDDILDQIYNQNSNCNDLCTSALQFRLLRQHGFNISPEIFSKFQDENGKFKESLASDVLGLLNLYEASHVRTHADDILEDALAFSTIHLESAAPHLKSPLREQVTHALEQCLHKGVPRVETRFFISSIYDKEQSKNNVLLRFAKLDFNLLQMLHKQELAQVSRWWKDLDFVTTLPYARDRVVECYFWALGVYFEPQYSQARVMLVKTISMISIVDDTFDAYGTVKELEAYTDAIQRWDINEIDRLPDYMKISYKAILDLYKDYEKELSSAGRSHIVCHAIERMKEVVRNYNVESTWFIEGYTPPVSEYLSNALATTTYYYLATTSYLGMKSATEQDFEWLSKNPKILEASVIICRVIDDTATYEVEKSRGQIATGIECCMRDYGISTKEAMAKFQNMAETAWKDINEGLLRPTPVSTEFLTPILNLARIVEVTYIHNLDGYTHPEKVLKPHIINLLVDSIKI
Description: TEAS activity assay (3H-FPP to 3H-5-epi-aristolochene, hexane partitioning). It is filed as biochemical. On the procedure: Kinetic Characterization of the Interaction of AGPP with TEAS. The assay for TEAS activity is based upon partitioning of the hydrophobic product (^3H-5-epi-aristolochene) into an organic solvent while the hydrophilic substrate (^3H-FPP) remains in the aqueous phase (i.e. Vögeli & Chappell, 1988; Back et al., 1994; Mathis et al. 1997). The Ki describing AGPP interaction with TEAS was characterized by measuring initial velocities for a matrix of reactions. Reactions (50 μl) containing 200 mM Tris-Cl, pH 7.5, 40 mM MgCl2, 50-250 nM TEAS, and 0.2 μCi ^3H-FPP, carrier-free or in combination with unlabeled FPP to give final substrate concentrations of 0.2-10 μM. Fixed concentrations of AGPP ranged from 0-150 μM. Reactions were initiated by the addition of enzyme and were incubated for 5 min. at 37° C. Reactions were quenched by vortexing against 150 μl hexane. After a brief centrifugation, 100 μl of the hexane phase was treated with approximately 20 mg of silica powder to remove any contaminating FPP or farnesol, the latter of which may be generated by contaminating phosphatase activity. Following vortexing and a brief centrifugation to pellet the silica, 50 μl of the hexane phase was mixed with 4 ml of liquid scintillation cocktail and analyzed for radioactivity (disintegrations per minute). Determination of reaction rate was based on percent conversion to product, the value for which was obtained by comparing the radioactivity in the hexane extract to that in an untreated aliquot of the assay mixture. […] Data were analyzed using Enzyme Kinetics V 1.5 (Trinity Software).
Kinetic Characterization of the Interaction of AGPP with TEAS. As a synthetic analog of FPP, AGPP (2) may potentially bind within the TEAS active site and thereby inhibit the sesquiterpene synthase activity of this enzyme. The nature of the potential interaction between TEAS and AGPP was characterized through a series of TEAS activity assays in which the ability of TEAS to produce ^3H-5-epi-aristolochene from ^3H-FPP was monitored in the presence of unlabeled AGPP. […]

With `C/C(=C\COP(=O)(O)OP(=O)(O)O)CC/C=C(\C)CNc1ccccc1` [AGPP, 8-anilino-geranyl pyrophosphate], the “mode of inhibition of TEAS-catalyzed cyclization of FPP (Lineweaver-Burk plots, FIG. 1)” value (intersecting Lineweaver-Burk plots) was “competitive inhibitor”. Besides, the Ki (recombinant TEAS, 3H-FPP substrate 0.2-10 μM, AGPP 0-150 μM, 5 min at 37° C., read-out: Ki for the inhibition of TEAS activity) came out at 5.9 ± 1.8 µM.
With `CC(C)=CCC/C(C)=C/CC/C(C)=C/COP(=O)(O)OP(=O)(O)O` [FPP], under “at 37° C., read-out: KM, TEAS utilization of FPP as a substrate”, the Michaelis constant (Km) worked out at 5.4 µM.
